The values that follow are results of earlier work, collected in patent US12485106B2, “Methods of treating fibrotic liver diseases or conditions with indeglitazar” (PLEIOGENIX INC., priority 2023, dated 2025).

The structures appear in SMILES notation.

This series relates to adipocyte differentiation. Conditions: compared with full PPAR γ-agonists like pioglitazone; cited from earlier work.

With `COc1ccc(S(=O)(=O)n2cc(CCC(=O)O)c3cc(OC)ccc32)cc1` [Indeglitazar, 3-[5-methoxy-1-(4-methoxybenzenesulfonyl)-1H-indol-3-yl]-propanoic acid], the promoting adipocyte differentiation result is “less potent”.
